Experiments:
[1] = target: T1, TEC (Homo sapiens, UniProt P42680); test: Screening for TEC inhibitory activity; format: biochemical
T1 sequence (P42680 1-631): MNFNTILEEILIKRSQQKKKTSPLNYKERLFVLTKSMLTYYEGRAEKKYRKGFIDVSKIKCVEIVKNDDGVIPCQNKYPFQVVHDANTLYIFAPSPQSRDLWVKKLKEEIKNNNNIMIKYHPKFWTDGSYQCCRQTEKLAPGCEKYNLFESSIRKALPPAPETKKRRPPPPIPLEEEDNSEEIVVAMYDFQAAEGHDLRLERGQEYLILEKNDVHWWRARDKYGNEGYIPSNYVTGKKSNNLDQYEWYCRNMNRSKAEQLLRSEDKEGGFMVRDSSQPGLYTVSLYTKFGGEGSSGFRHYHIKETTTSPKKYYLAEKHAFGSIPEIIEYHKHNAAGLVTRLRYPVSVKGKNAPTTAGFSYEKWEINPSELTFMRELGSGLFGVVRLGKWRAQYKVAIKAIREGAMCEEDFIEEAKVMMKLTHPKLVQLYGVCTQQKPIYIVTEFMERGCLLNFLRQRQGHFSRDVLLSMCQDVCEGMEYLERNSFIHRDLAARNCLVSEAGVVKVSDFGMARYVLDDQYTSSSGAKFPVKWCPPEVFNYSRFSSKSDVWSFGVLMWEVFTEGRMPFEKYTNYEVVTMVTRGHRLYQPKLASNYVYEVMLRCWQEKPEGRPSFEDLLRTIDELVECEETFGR
Method: 1.3 Screening for TEC Inhibitory Activity
(§1) 50 ng/μL TEC stock solution was diluted with kinase buffer (50 mM HEPES, 10 mM MgCl2, 2 mM DTT, 1 mM EGTA, 0.01% Tween 20), and 6 μL of 1.67× working solution at 0.01336 g/μL (final concentration: 0.008 ng/μL) was added to each well. Different compounds dissolved in DMSO were added to the wells using a nanoliter pipettor, resulting in the final concentration of 1000 nM to 0.24 nM (4-fold gradient for 7 concentrations in total), and blank control wells (without enzyme) and negative control wells (with enzyme, plus vehicle DMSO) were set. After enzyme was reacted with the compound or vehicle for 30 min, 5×ATP at 50 μM (final concentration: 10 μM) prepared with kinase buffer was mixed with 5× substrate at 0.5 μM (final concentration: 0.1 μM, ULight-poly GT) at a ratio of 1:1, and the mixture was added to each well at 4 μL/well. After being sealed with a film, the plate was incubated at room temperature for 2 h, then 5 μL of 4×EDTA at 40 mM (final concentration: 10 mM) was added to each well. After the plate was incubated for 5 min at room temperature, 5 μL of 4× detection reagent at 8 nM (final concentration: 2 nM, Eu-anti-phospho-tyrosine antibody) was added to each well, followed by incubation at room temperature for 1 h. The plate was read using a PE Envision multi-functional microplate reader (excitation: 320 nm, emission: 665 nm), and IC50 was calculated by four-parameter fitting.

[2] = target: T2, ITK (Homo sapiens, UniProt Q08881); test: Screening for ITK inhibition activity; format: biochemical
T2 sequence (Q08881 1-620): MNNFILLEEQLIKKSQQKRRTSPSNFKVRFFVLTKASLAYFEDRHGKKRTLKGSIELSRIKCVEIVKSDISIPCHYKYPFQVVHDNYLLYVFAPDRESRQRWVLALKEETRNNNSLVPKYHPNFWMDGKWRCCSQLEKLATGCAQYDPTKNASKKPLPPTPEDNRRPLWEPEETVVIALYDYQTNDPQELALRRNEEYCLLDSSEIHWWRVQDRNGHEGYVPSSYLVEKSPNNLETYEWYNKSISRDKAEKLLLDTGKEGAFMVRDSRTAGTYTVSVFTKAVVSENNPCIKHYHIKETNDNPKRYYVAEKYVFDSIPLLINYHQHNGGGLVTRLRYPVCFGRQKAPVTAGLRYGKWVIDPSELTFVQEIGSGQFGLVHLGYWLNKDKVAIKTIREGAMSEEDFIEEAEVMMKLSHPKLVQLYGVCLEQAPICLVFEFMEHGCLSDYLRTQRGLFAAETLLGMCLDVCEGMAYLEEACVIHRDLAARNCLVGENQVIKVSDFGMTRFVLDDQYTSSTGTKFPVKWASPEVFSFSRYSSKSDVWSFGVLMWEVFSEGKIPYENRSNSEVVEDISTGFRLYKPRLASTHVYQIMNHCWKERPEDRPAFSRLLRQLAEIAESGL
Method: 1.4 Screening for ITK ([…]) Inhibition Activity
as §1, with “ITK” for “TEC”, “[…]” for “0.01336”, “0.05ng/μL)” for “0.008 ng/μL)”, “4×detection” for “4× detection”

[3] = Mouse liver microsome metabolic stability; format: in vitro ADME; conditions: mouse liver microsomes
Method: 3.2 Mouse Liver Microsome Assay
300 μL of final incubation system: 30 μL of mouse liver microsomes (protein concentration: 5 mg/mL, XENOTECH, USA), 30 μL of NADPH (10 mM)+MgCl2 (5 mM), 3 μL of the substrate, i.e., the example compound (dissolved in 50% aqueous acetonitrile solution, 100 μM), and 237 μL of PBS buffer, wherein the proportion of the organic solvent (acetonitrile) was 0.5%. Each tube was added with 270 μL of a mixed solution of substrate and enzyme, and after being pre-incubated at 37° C. for 5 min, added with 30 μL of NADPH+MgCl2. Then 50 μL of the mixture was taken at 0 min, 15 min, 30 min and 60 min, and added with 300 μL of diazepam glacial acetonitrile (20 ng/mL) containing an internal standard to quench the reaction. The reaction mixture was vortexed for 5 min, and centrifuged (13,000 rpm, 4° C.) for 10 min. 100 μL of supernatant was pipetted into a sample vial, from which 1 μL of supernatant was injected and analyzed by LC-MS/MS, and the residual percentage was calculated.

| SMILES | IC50 [1] | IC50 [2] | Mouse (MLM) Remaining % (T = 60 min) [3] |
| --- | --- | --- | --- |
| CC#CC(=O)N1[C@@H]2COC[C@@H]2C[C@H]1c1nc(-c2ccc(C(=O)Nc3ccccn3)cc2)c2c(N)nccn12 [Compound I-1, 4-(8-amino-3-((2S,3aR,6aS)-1-(but-2-ynoyl)hexahydro-1H-furo[3,4-b]pyrrol-2-yl)imidazo [1,5-a]pyrazin-1-yl)-N-(pyridin-2-yl)benzamide] | 155 nM | > 1000 nM | 90% |
| C=CC(=O)N1[C@@H]2COC[C@@H]2C[C@H]1c1nc(-c2ccc(C(=O)Nc3ccccn3)cc2)c2c(N)nccn12 [Compound I-3, 4-(3-((2S,3AR,6AS)-1-ACRYLOYLHEXAHYDRO-1H-FURO[3,4-B]PYRROL-2-YL)-8-AMINOIMIDAZO [1,5-A]PYRAZIN-1-YL)-N-(PYRIDIN-2-YL)BENZAMIDE] | 111 nM | > 1000 nM | 89% |
| CC#CC(=O)N1[C@@H]2COC[C@@H]2C[C@H]1c1nc(-c2ccc(C(=O)Nc3cc(C(F)(F)F)ccn3)cc2F)c2c(N)nccn12 [Compound I-4, 4-(8-AMINO-3-((2S,3AR,6AS)-1-(BUT-2-YNOYL)HEXAHYDRO-1H-FURO[3,4-B]PYRROL-2-YL)IMIDAZO[1,5-A]PYRAZIN-1-YL)-3-FLUORO-N-(4-(TRIFLUOROMETHYL)PYRIDIN-2-YL)BENZAMIDE] | 25 nM | > 1000 nM | 32% |
| Nc1nccn2c([C@@H]3C[C@H]4COC[C@H]4N3C(=O)C3CC3)nc(-c3ccc(C(=O)Nc4cc(C(F)(F)F)ccn4)cc3F)c12 [Compound I-7, 4-(8-AMINO-3-((2S,3AR,6AS)-1-(CYCLOPROPANECARBONYL)HEXAHYDRO-1H-FURO[3,4-B]PYRROL-2-YL)IMIDAZO[1,5-A]PYRAZIN-1-YL)-3-FLUORO-N-(4-(TRIFLUOROMETHYL)PYRIDIN-2-YL)BENZAMIDE] |  | > 1000 nM | 55.7% |
